Experimental data published in patent US20230202981A1, “NOVEL SMALL MOLECULES FOR TARGETED DEGRADATION OF UNTARGETABLE KRAS IN CANCER THERAPY” (Pillai Universal LLC, priority 2020, published 2023).

Columns and labels:
KRAS mutant cell lines = test: Apoptosis by Annexin V-FITC/PI staining and flow cytometry; assay type: cell-based; details: mutant cancer cells, 24 h
Experimental: FIG. 6 depicts the compound I induces apoptosis in KRAS-dependent cancer cell line • FIG. 6(A)—Morphological changes after 24 h exposure to compound I ([…]) were captured by an Epifluroscent microscope with ×100 magnification, scale bar: 20 μm. • FIG. 6(B)—Cells were treated with 250 nm of Compound I for 24 h and apoptosis levels were quantitatively measured with flow cytometry after staining cells with Annexin V/propidium iodide (PI), and triplicate data were plotted as bar chart diagram. • FIG. 6(C)—Representative western blot data of different apoptosis-related protein (PARP, Bcl-2, and Bax) confirmed induction of cellular apoptosis after treatment ([…]) for 24 h. […]
Compound 1 was subjected to cancer induced model and determined whether the observed growth inhibition was due to apoptosis or necrosis. […] Next, applying standard Annex in V-FITC/PI staining followed by flow cytometry analysis, the percentage of apoptotic and necrotic cells were quantitatively measured. […] Furthermore, to examine compound-induced apoptosis in KRAS mutant cells, the expression levels of several well-characterized apoptotic proteins were analyzed by western blotting. […] The densitometry quantitation of the ratio of Bax/Bcl2 protein expression and PARP cleavage relative to GAPHD is shown as a bar chart in […].

[1] = test system: KRAS G12C mutant cell lines; test: Cytotoxic effect on NCI-Panel of 10 KRAS G12C mutant cell lines; assay type: cell-based
[2] = test system: GTP-KRAS in KRAS G12C, G12V, G12D, and G13D mutant cells; test: RAS activation assay, formation of GTP-bound KRAS in mutant cells; assay type: cell-based; details: 24 h
From the text: (§1) Actually, mutant KRAS would interfere the balance between GEFs and GAPs, resulting in locking in the active GTP-bound KRAS state and aberrant stimulation of its downstream signaling.

BRCA 1/2-deficient cells = test: Toxicity to BRCA-deficient cells; assay type: cell-based; details: including cisplatin-resistant ones
wild-type (WT) KRAS = test: RAS activation assay, GTP-KRAS in wild-type cells; assay type: cell-based
From the text: as §1
Significant increased expression of Immune cells has been observed in Compound 1 treatment.

[3] = Crossing blood-brain barrier: pharmacokinetics in brain regions; assay type: in vivo; parameters: AUC0-t_D: concentration or dose not given beside the values
[4] = test system: RAS-MAPK pathway signaling in KRAS G12C mutant cell lines; test: Reactivation of RAS signaling in KRAS G12C mutant cell lines; assay type: cell-based
From the text: Densitometry of phosphor-ERK, MEK, AKT, and MYC is normalized to GAPDH. Results represent an average across 8 cell lines.

Pharmacokinetics in mice = assay type: in vivo
tumor xenograft = test: Nude mouse xenograft models (EGFR/HER2 study); assay type: in vivo
From the text: The activity of Compound 1 on various mutated EGFRs, HER2, and HER4 were examined. MTT assays, flow cytometry, and Western blotting were used to examine the effects of Compound 1 on with different genetic characteristics and relevant molecular mechanisms. Nude mouse xenograft models with cells were used to evaluate the in vim anti-tumor activity of Compound 1. […] Compound 1 blocked EGFR phosphorylation, thereby down regulating downstream PI3/AKT and MAPK/ERK signaling pathways and inducing G0/G1 arrest in different cells. […] Due to compromised homologous recombination (HR) repair, BRCA 1-and BRCA 2-mutated tumours accumulate DNA damage and genomic rearrangements conducive of tumour progression.

Oral bioavailability = assay type: in vivo
p53 = test: Expression of p53 and apoptosis-related genes (qRT-PCR); assay type: cell-based; details: cancer cells
Experimental: FIG. 11 depicts compound I Targeting p53 (mRNA levels of p53, Puma, and Noxa in cells at 6 hours after compound I treatment. mRNA levels were quantified by qRT-PCR. Data were normalized to GAPDH expression and plotted relative to cells treated with DMSO as control)

[5] = test system: cancer cells expressing KRAS mutations; test: Cell viability assay in cancer cells expressing KRAS mutations; assay type: cell-based
From the text: It was further examined that if Compound 1 can also induce cytotoxic effects on other cancer cells expressing KRAS mutations, a panel of cancer cell lines which harbor KRAS G12D, G12V and G12C point mutations respectively, were selected and used with KRAS wild-type (WT) controls.
The cytotoxicity of Compound 1 was initially evaluated in a panel of 30+ cell lines with wild-type (WT) KRAS or known KRAS mutations.

[6] = test system: mutant-KRAS-driven cancer; test: In vivo tumor model (PDTX animal model); parameters: species or system mice
From the text: FIG. 18 depicts regression of all mutant-KRAS-driven cancer in PDTX Animal Model.
Compound 1 was also found to inhibit downstream signaling.

In vivo toxicity studies = test: In vivo toxicity studies
From the text: FIG. 20 depicts the results of in vivo toxicity studies of Compound 1. Organ weight, Body weight, liver weight, haematological parameters, serum electrolyte LFT, KFT, Lipid parameters found to be normal range compared with the controlled group.
Tests of blood cells (WBC, RBC, and PLT) for bone marrow, RFT for kidney, and ALT/AST for liver functions all provided results in the normal range.

CCCCc1ncc(C(=O)C2CC=C(C(N)=O)N2)cc1C(=O)OCC (centres unmarked) [Compound 1]
apoptosis compared with the untreated cells (KRAS mutant cell lines): significantly induced apoptosis | number of cancer cells compared against AMG510 and MRTX849 [1]: significant reduction in the number of cancer cells | formation of GTP-KRAS relative to the total amount of KRAS [2]: selectively inhibit the formation of GTP-KRAS | toxicity to BRCA 1/2-deficient cells (BRCA 1/2-deficient cells): specifically toxic | GTP binding affinity in wild type KRAS (wild-type (WT) KRAS; wild type KRAS): no effect on GTP binding affinity | effect on GTP-KRAS in cells with wild-type KRAS (wild-type (WT) KRAS; wild-type (WT) KRAS cells): no effect was observed | AUC0-t_D ([3]; Brainstem): 85.63 ± 17.43 h × ng/g/mg, h × ng/mL/mg | MRTQ-t ([3]; Brainstem): 5.89 ± 0.34 h | Tmax ([3]; Brainstem): 1.35 ± 0.33 h | T½ ([3]; Brainstem): 1.81 ± 0.23 h | AUC0-t_D ([3]; Cortex): 152.08 ± 5.25 h × ng/g/mg, h × ng/mL/mg | MRTQ-t ([3]; Cortex): 6.23 ± 0.65 h | Tmax ([3]; Cortex): 1.14 ± 0.09 h | T½ ([3]; Cortex): 5.86 ± 2.91 h | AUC0-t_D ([3]; Hippocampus): 58.20 ± 15.36 h × ng/g/mg, h × ng/mL/mg | MRTQ-t ([3]; Hippocampus): 5.18 ± 0.51 h | Tmax ([3]; Hippocampus): 1.25 ± 1.08 h | T½ ([3]; Hippocampus): 1.19 ± 0.22 h | AUC0-t_D ([3]; Hypothalamus): 59.10 ± 5.06 h × ng/g/mg, h × ng/mL/mg | MRTQ-t ([3]; Hypothalamus): 5.25 ± 0.60 h | Tmax ([3]; Hypothalamus): 0.54 ± 0.24 h | T½ ([3]; Hypothalamus): 1.18 ± 0.26 h | AUC0-t_D ([3]; Striatum): 123.81 ± 4.90 h × ng/g/mg, h × ng/mL/mg | MRTQ-t ([3]; Striatum): 6.75 ± 0.68 h | Tmax ([3]; Striatum): 0.14 ± 0.09 h | T½ ([3]; Striatum): 3.45 ± 0.93 h | MAPK pathway signaling (phosphor-MEK, phosphor-ERK, phosphor-AKT) ([4]; at 4 hours): suppressed MAPK pathway signaling | rebound of RAS-MAPK pathway signaling (pMEK, pERK, pAKT, MYC) ([4]; by 72 hours): no rebound activity was observed | T1/2 (Pharmacokinetics in mice): T1/2 = 5.8 h (mice) | Cmax (Pharmacokinetics in mice; 10 mg/kg b.wt.): Cmax = 2.6 μg/mL (10 mg/kg b.wt. mice) | T max (Pharmacokinetics in mice; 10 mg/kg b.wt.): T max = 2 h (mice 10 mg/kg, b.wt;) | tumor growth (tumor xenograft): inhibited tumor growth | F (Bioavailability) (Oral bioavailability): F-92% (Bioavailability) | expression of p53 (p53): upregulating the expression of p53 | IC50 values, cancer cells and stem cells viability ([5]; KRAS G12D, G12V and G12C cell lines, 24 h): nanomolar concentration | IC50 values, cancer cell viability ([5]; panel of 30+ cell lines with WT KRAS or known KRAS mutations): micromolar to nanomolar concentrations | tumor growth suppression ([6]; all mutant-KRAS-expressing animal models, started at day 9): significant suppression from day 10-14 | relapse ([6]; for 6-8 months): no evidence of relapse | reduction in tumor growth ([6]; within 28 days): 95% | histopathology of harvested normal tissues (In vivo toxicity studies; after treatment with specific doses): no evidence of normal tissue toxicities | blood cells, kidney and liver function tests, organ and body weight (In vivo toxicity studies; compared with the controlled group): normal range
